This note sets out measurements from patent publication US20220324865A1 (Bayer Aktiengesellschaft, priority 2018, published 2022).

This experiment has as its target T1, human EP3 receptor (Homo sapiens, UniProt P43115).
T1 construct: expressed in transfected cells; host or cells: CHO K1 (Chinese Hamster Ovary), stably co-transfected with Galpha16 and mitochondrial clytin
T1 sequence (P43115 1-390): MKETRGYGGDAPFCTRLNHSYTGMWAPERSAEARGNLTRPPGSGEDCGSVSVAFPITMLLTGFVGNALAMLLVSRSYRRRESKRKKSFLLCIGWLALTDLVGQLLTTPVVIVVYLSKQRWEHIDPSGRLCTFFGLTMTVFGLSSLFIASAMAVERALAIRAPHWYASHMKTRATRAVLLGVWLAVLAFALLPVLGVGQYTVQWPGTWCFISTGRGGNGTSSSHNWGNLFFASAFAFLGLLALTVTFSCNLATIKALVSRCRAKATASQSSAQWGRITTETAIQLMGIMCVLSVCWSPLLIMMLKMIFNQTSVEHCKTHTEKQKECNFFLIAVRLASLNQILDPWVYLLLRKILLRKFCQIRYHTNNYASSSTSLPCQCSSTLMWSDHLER
The experiment is described as follows: Cellular in vitro assay for determining EP3 receptor activity (human EP3 cell line, sulprostone-stimulated calcium luminescence). The class given is cell-based. The settings on record: CHO cells expressing human EP3 and mitochondrial Clytin; antagonist mode, sulprostone at EC50; read-out: EP3 CHO mtCLY ANTAG IC50. Put shortly: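 Antagonist activity was measured as inhibition of the luminescent calcium signal elicited by EC50 sulprostone, following 10 min compound pretreatment. The cell line was recombinant CHO K1 co-expressing human EP3, Gα16 and the photoprotein Clytin, reconstituted with coelenterazine.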
As a reminder, the IC50 is the point on the concentration scale where inhibition reaches its midpoint. Turning to `Cc1ccc(-c2cn3nc(C(=O)N[C@H](CCO)c4ccc(F)cc4)c(C4CC4)c3c(=O)[nH]2)cc1C` [Example 1-83, 3-Cyclopropyl-6-(3,4-dimethylphenyl)-N-[(1R)-1-(4-fluorophenyl)-3-hydroxpropyl]-4-oxo-4,5-dihydropyrazolo[1,5-a]pyrazine-2-carboxamide], the IC50 was determined as 0.523 nM.
Take `Cc1cccc2ncc(-c3cn4nc(C(=O)NCc5ccnn5C)c(C(C)C)c4c(=O)[nH]3)cc12` [Example 4-22, N-[(1-Methyl-1H-pyrazol-5-yl)methyl]-6-(5-methylquinolin-3-yl)-4-oxo-3-(propan-2-yl)-4,5-dihydropyrazolo[1,5-a]pyrazine-2-carboxamide]: the IC50 was determined as 0.815 nM.
The figure for `COc1ccc(C(C)NC(=O)c2cc3c(=O)[nH]c(-c4ccc(C)c(C)c4)cn3n2)cn1` (stereo not drawn) [Example 5-4, 6-(3,4-Dimethylphenyl)-N-[1-(6-methoxypyridin-3-yl)ethyl]-4-oxo-4,5-dihydropyrazolo[1,5-a]pyrazine-2-carboxamide] is 2.5 nM; for `CC(C)C(NC(=O)c1cc2c(=O)[nH]c(-c3ccc4ccccc4c3)cn2n1)c1cccs1` (stereo not drawn) [Example 2-38, N-[2-Methyl-1-(2-thienyl)propyl]-6-(2-naphthyl)-4-oxo-4,5-dihydropyrazolo[1,5-a]pyrazine-2-carboxamide] it is 2.05 nM.
As for `COc1ccc(C(C)NC(=O)c2cc3c(=O)[nH]c(-c4ccc(Cl)c(C)c4)cn3n2)cn1` (stereo not drawn) [Example 1-107, 6-(4-Chloro-3-methylphenyl)-N-[1-(6-methoxypyridin-3-yl)ethyl]-4-oxo-4,5-dihydropyrazolo[1,5-a]-pyrazine-2-carboxamide], the IC50 was 3.97 nM.
Regarding `Cc1cc(-c2cn3nc(C(=O)NCC(O)C(F)(F)F)c(C4CC4)c3c(=O)[nH]2)ccc1F` (single isomer, unassigned) [6-655], the IC50 stood at 9.35 nM.
As to `CC(C)(O)[C@@H](NC(=O)c1nn2cc(-c3ccc(Cl)c(F)c3)[nH]c(=O)c2c1C(F)(F)F)c1ccc(F)cc1` [6-649], the IC50 came out at 9.97 nM.
In the case of `CC[C@@H](C)NC(=O)c1nn2cc(-c3ccc(Cl)c(C)c3)[nH]c(=O)c2c1C(F)(F)F` [6-227], the IC50 was determined as 6.67 nM.
The figure for `Cc1ccc(-c2cn3nc(C(=O)N[C@@H](c4ccc(F)cc4)C(C)(C)O)c(C(F)(F)F)c3c(=O)[nH]2)cc1C` [Example 1-67, 6-(3,4-Dimethylphenyl)-N-[(1S)-1-(4-fluorophenyl)-2-hydroxy-2-methylpropyl]-4-oxo-3-(trifluoro-methyl)-4,5-dihydropyrazolo[1,5-a]pyrazine-2-carboxamide] is 0.905 nM.
`COc1ccccc1C(C)NC(=O)c1cc2c(=O)[nH]c(-c3ccc4ccccc4c3)cn2n1` (stereo not drawn) [Example 2-8, N-[1-(2-Methoxyphenyl)ethyl]-6-(2-naphthyl)-4-oxo-4,5-dihydropyrazolo[1,5-a]pyrazine-2-carboxamide]: the IC50 came out at 1.2 nM.
In the case of `Cc1ccc(-c2[nH]c(=O)c3c(C4CC4)c(C(=O)N[C@H](C)c4ccc(F)cc4)nn3c2F)cc1Cl` [6-663], the IC50 is 3.85 nM.
As to `Cc1ccc(-c2cn3nc(C(=O)NC(C)(C)C4CC4)c(C(F)(F)F)c3c(=O)[nH]2)cc1Cl` [6-191], the IC50 was found to be 0.97 nM.
Take `Cc1cccc2ncc(-c3cn4nc(C(=O)NC5(c6ccccc6)CCOCC5)c(C(C)C)c4c(=O)[nH]3)cc12` [Example 4-77, 3-Isopropyl-6-(5-methylquinolin-3-yl)-4-oxo-N-(4-phenyltetrahydro-2H-pyran-4-yl)-4,5-dihydropyrazolo[1,5-a]pyrazine-2-carboxamide]: the IC50 came to 0.835 nM.
As to `Cc1nn(C)cc1CNC(=O)c1nn2c(C)c(-c3ccc4ccccc4c3)[nH]c(=O)c2c1C` [Example 3-9, N-[(1,3-Dimethyl-1H-pyrazol-4-yl)methyl]-3,7-dimethyl-6-(naphthalen-2-yl)-4-oxo-4,5-dihydropyrazolo[1,5-a]pyrazine-2-carboxamide], the IC50 was determined as 1.95 nM.
The figure for `Cc1cccc2ncc(-c3cn4nc(C(=O)NC5(C)CCS(=O)(=O)C5)c(C(C)C)c4c(=O)[nH]3)cc12` (stereo not drawn) [Example 4-17, 3-Isopropyl-N-(3-methyl-1,1-dioxothiolan-3-yl)-6-(5-methyl-3-quinolyl)-4-oxo-5H-pyrazolo[1,5-a]pyrazine-2-carboxamide] is 2.45 nM; for `O=C(N[C@@H](CCO)c1ccc(F)cc1)c1cc2c(=O)[nH]c(-c3ccc4ccccc4c3)cn2n1` [Example 1-69, N-[(1S)-1-(4-Fluorophenyl)-3-hydroxypropyl]-6-(naphthalen-2-yl)-4-oxo-4,5-dihydropyrazolo-[1,5-a]pyrazine-2-carboxamide] it is 2.25 nM.
The figure for `CC(C)(O)[C@@H](NC(=O)c1nn2cc(-c3ccc(Cl)c(OC(F)(F)F)c3)[nH]c(=O)c2c1C1CC1)c1ccc(F)cc1` [6-592] is 1.85 nM.
Turning to `Cc1ccc(-c2cn3nc(C(=O)NCC(N)C(F)(F)F)c(C4CC4)c3c(=O)[nH]2)cc1F` (single isomer, unassigned) [6-396], the IC50 turned out to be 3.05 nM.
As to `COc1ccc(C2(NC(=O)c3nn4cc(-c5ccc(Cl)c(C)c5)[nH]c(=O)c4c3C3CC3)CN(C)C2)cc1` [6-303], the IC50 came to 2.9 nM.
Take `COc1ccc([C@@H](C)NC(=O)c2cc3c(=O)[nH]c(-c4ccc5c(c4)COCC5)cn3n2)cn1` [Example 1-51, 6-(3,4-Dihydro-1H-isochromen-7-yl)-N-[(1R)-1-(6-methoxypyridin-3-yl)ethyl]-4-oxo-4,5-dihydropyrazolo[1,5-a]pyrazine-2-carboxamide]: the IC50 came out at 4 nM.
Turning to `Cc1ccc(-c2cn3nc(C(=O)NCC(O)C(F)(F)F)c(C4CC4)c3c(=O)[nH]2)cc1C(F)(F)F` (racemic) [6-243], the IC50 was found to be 2 nM.
On to `COc1cc(-c2cn3nc(C(=O)N[C@H](CCO)c4ccc(F)cc4)c(C4CC4)c3c(=O)[nH]2)ccc1Cl` [6-482], for which the IC50 was 0.48 nM.
On to `CC[C@@H](NC(=O)c1nn2c(C)c(-c3ccc4ccccc4c3)[nH]c(=O)c2c1C)c1ccccc1` [Example 3-33, 3,7-Dimethyl-6-(naphthalen-2-yl)-4-oxo-N-[(7R)-1-phenylpropyl]-4,5-dihydropyrazolo[1,5-a]pyrazine-2-carboxamide], for which the IC50 came out at 2.2 nM.
For the compound `Cc1ccc(-c2cn3nc(C(=O)N[C@@H](C)C4CC4)c(C4CC(F)(F)C4)c3c(=O)[nH]2)cc1Cl` [6-560], the IC50 stood at 1.6 nM.
`CC(C)(O)[C@@H](NC(=O)c1nn2cc(-c3ccc(Cl)cc3)[nH]c(=O)c2c1C1CC1)c1ccc(F)cc1` [6-676]: the IC50 came out at 3.55 nM.
As to `O=C(NC(c1ccccc1)C(F)F)c1cc2c(=O)[nH]c(-c3ccc4ccccc4c3)cn2n1` (stereo not drawn) [Example 2-4, N-(2,2-Difluoro-1-phenylethyl)-6-(2-naphthyl)-4-oxo-4,5-dihydropyrazolo[1,5-a]pyrazine-2-carboxamide], the IC50 is 1.07 nM.
The figure for `CCN1CCC(NC(=O)c2nn3cc(-c4ccc(C)c(F)c4)[nH]c(=O)c3c2C2CC2)(C(F)(F)F)C1` (single isomer, unassigned) [6-406] is 23.5 nM; for `Cc1ccc(-c2cn3nc(C(=O)N[C@H](C)c4ccc(F)cc4)cc3c(=O)[nH]2)cc1Cl` [6-81] it is 2.8 nM.
On to `O=C(NC1CCN(CC(F)F)C1)c1nn2cc(-c3ccc4ccccc4c3)[nH]c(=O)c2c1C(F)(F)F` (single isomer, unassigned) [6-519], for which the IC50 is 6.9 nM.
Consider `Cc1cccc2ncc(-c3cn4nc(C(=O)Nc5cccc6ncccc56)c(C(C)C)c4c(=O)[nH]3)cc12` [Example 4-29, 6-(5-Methylquinolin-3-yl)-4-oxo-3-(propan-2-yl)-N-(quinolin-5-yl)-4,5-dihydropyrazolo[1,5-a]pyrazine-2-carboxamide], for which the IC50 was 1.6 nM.
For `Cc1cc(-c2cn3nc(C(=O)NC(c4ccc(F)cc4)C4(O)CC4)c(C4CC4)c3c(=O)[nH]2)ccc1F` (racemic) [6-650], the IC50 was found to be 1.55 nM.
Turning to `Cc1cccc2ncc(-c3cn4nc(C(=O)NC(C)c5ccc(Cl)cc5Cl)c(C(C)C)c4c(=O)[nH]3)cc12` (stereo not drawn) [Example 4-82, N-[1-(2,4-Dichlorophenyl)ethyl]-3-isopropyl-6-(5-methyl-3-quinolyl)-4-oxo-5H-pyrazolo[1,5-a]pyrazine-2-carboxamide], the IC50 was determined as 6.25 nM.
In the case of `Cc1cc(-c2cn3nc(C(=O)NC4CC(F)(F)C4)c(C4CC4)c3c(=O)[nH]2)ccc1Cl` [6-297], the IC50 stood at 1.15 nM.
Consider `O=C(N[C@H](CN1CCOCC1)c1ccc(F)cc1)c1nn2cc(-c3ccc(Cl)c(F)c3)[nH]c(=O)c2c1C1CC1` [6-106], for which the IC50 was 0.61 nM.
The figure for `Cc1c(C(=O)NC(C)c2ccccn2)nn2c(C)c(-c3ccc4ccccc4c3)[nH]c(=O)c12` (stereo not drawn) [Example 3-17, 3,7-Dimethyl-6-(2-naphthyl)-4-oxo-N-[1-(2-pyridyl)ethyl]-5H-pyrazolo[1,5-a]pyrazine-2-carboxamide] is 1.8 nM.
The figure for `O=C(NC(CCn1cncn1)c1ccccc1)c1cc2c(=O)[nH]c(-c3ccc4ccccc4c3)cn2n1` (stereo not drawn) [6-48] is 5.7 nM; for `CC[C@@H](C)NC(=O)c1nn2cc(-c3ccc(Cl)c(C)c3)[nH]c(=O)c2c1C1CC1` [6-332] it is 2 nM.
Regarding `Cc1cc(-c2cn3nc(C(=O)NCC(O)C(F)(F)F)c(C4CC4)c3c(=O)[nH]2)ccc1Cl` (racemic) [6-312], the IC50 was 1.3 nM.
`Cc1ccc(-c2cn3nc(C(=O)NCC(N)C(F)(F)F)c(C4CC4)c3c(=O)[nH]2)cc1F` (single isomer, unassigned) [6-397]: the IC50 is 3.45 nM.
